In patent US11674952B2, “Embryonic cell-based therapeutic candidate screening systems, models for Huntington's Disease and uses thereof” (The Rockefeller University, priority 2016, dated 2023):
“Also recorded” adds a separate entry of the source.

System: RUES2-Q150 cells
Test: Germ layer micropattern screen: BMP4-differentiated hESC colonies, reversion of the HD-dependent micropattern signature
Type: cell-based, human
Settings: kinetin 1 μM for 2-24 hours prior to BMP4 addition
Description: Micropattern cultures were established according to methods described in Warmflash et al., Nature Methods. 2014 August: 11(8):847-854. This procedure is briefly described in Materials and Methods.
Cells confined to circular micropatterns and differentiated with BMP4 produce an ordered array of germ layers along the radial axis of the colony. This order results from self-organized signaling which confines response to the BMP4 to the colony border while inducing a broader gradient of Activin/Nodal signaling to pattern mesendodermal fates. Control of fates is established from the border of the colony so that as colony size is reduced the central fates are lost. Thus, given minimal geometric and signaling cues, hESCs will self-organize to generate embryonic patterns such as those of the human gastrula.
The Applicants next applied micropattern technology to the isogenic hESC lines for Huntington's Disease. […]
The spatial expression of germ markers Sox2, Bra, and Cdx2 was compared between RUES2 and RUES2-Q150 cells (FIG. 6). […] Tri dimensional geometry was evaluated by first generating images of cells at different focal planes known as “Z-stacks”. […]

c1coc(CNc2ncnc3[nH]cnc23)c1 [kinetin]
rescue of HD-dependent micropattern signature (SOX2+ area; Sox2 and Bra/Cdx2 territories): reduced or reverted HD-dependent micropattern signature; also recorded: restore the HD-dependent micropattern signature; also recorded: at least partially rescued; also recorded: partial but significant rescue of phenotype | rescue of cell number phenotype (total number of cells per micropattern, cell density): restored the cell density; also recorded: restored the cell number phenotype; also recorded: rescues the cell number phenotype
